Assay results published in patent publication US12729377B2, “RNAi agents and compositions for inhibiting expression of angiopoietin-like 3 (ANGPTL3), and methods of use” (Arrowhead Pharmaceuticals, Inc., priority 2017, dated 2026).
In the oligonucleotide strings, read from the 5' end, every base follows the letter of its sugar. An asterisk marks phosphorothioate; unmarked linkages are phosphodiester. Other units and linkages are bracketed, terminal groups are in braces. A string of capitals states the bases alone. {NAG37} = tridentate N-acetyl-galactosamine targeting ligand, structure (NAG37)s; [invAb] = inverted abasic unit; m = 2'-O-methyl; f = 2'-fluoro

Columns and labels:
[1] = tested on: ANGPTL3 gene; assay: Example 8: serum triglycerides in cynomolgus monkeys; assay type: in vivo, cynomolgus macaque (Macaca fascicularis); conditions: 3.0 mg/kg single SC injection day 1, cynos, n=2
Experimental: (§1) Additional ANGPTL3 RNAi agents were evaluated in cynomolgus monkeys. On day 1, cynomolgus macaque (Macaca fascicularis) primates (also referred to herein as “cynos”) were administered a single subcutaneous injection of 0.3 mL/kg (approximately 1-2 mL volume, depending on animal mass) containing 3.0 mg/kg of one of ANGPTL3 RNAi agent AD05577, AD05307, AD05488, AD05654, or AD05659, each formulated in saline.
(§2) Two (2) cynos in each group were tested (n=2). Blood samples were drawn and serum samples were analyzed on days −8 (pre-dose), 1 (pre-dose), 8, 15, 22, 29, and 36. Cynos were fasted overnight prior to each collection. ANGPTL3 protein levels in serum were measured by ELISA assay (R&D Systems), according to the manufacturer's recommendations. Triglycerides, total cholesterol, high-density lipoprotein (HDL), and low-density lipoprotein (LDL) in serum were measured on a Cobas® Integra 400 (Roche Diagnostics), according to the manufacturer's recommendations.
(§3) The ANGPTL3 protein levels, triglyceride levels, total cholesterol levels, HDL levels, and LDL levels for each animal were normalized. For normalization, the level of ANGPTL3 protein, triglyceride, HDL, and total cholesterol, respectively, for each animal at a time point, was divided by the average pre-treatment level of expression in that animal (in this case at days −8, and 1 (pre-dose)) to determine the ratio of expression “normalized to pre-treatment.”

[2] = tested on: ANGPTL3 protein; assay: Example 8: serum ANGPTL3 protein by ELISA in cynomolgus monkeys; assay type: in vivo, cynomolgus macaque (Macaca fascicularis); conditions: for Avg ANGPTL3 protein normalized to pre-treatment: 3.0 mg/kg single SC injection day 1, cynos, n=2
Experimental: as §1, §2, §3

[3] = tested on: ANGPTL3 gene; assay: Example 8: serum LDL in cynomolgus monkeys; assay type: in vivo, cynomolgus macaque (Macaca fascicularis); conditions: 3.0 mg/kg single SC injection day 1, cynos, n=2
Experimental: as §1, §2, §3

[4] = tested on: ANGPTL3 gene; assay: Example 8: serum total cholesterol in cynomolgus monkeys; assay type: in vivo, cynomolgus macaque (Macaca fascicularis); conditions: 3.0 mg/kg single SC injection day 1, cynos, n=2
Experimental: as §1, §2, §3

[5] = tested on: ANGPTL3 gene; assay: Example 8: serum HDL in cynomolgus monkeys; assay type: in vivo, cynomolgus macaque (Macaca fascicularis); conditions: 3.0 mg/kg single SC injection day 1, cynos, n=2
Experimental: as §1, §2, §3

[6] = tested on: ANGPTL3 gene; assay: Example 7: serum total cholesterol in mice; assay type: in vivo, C57bl/6 mice; parameters: key: ratio: (level/pre-treatment day -1 level) ÷ mean of D5W control group
Experimental: (§4) To further assess the in vivo activity of additional ANGPTL3 RNAi agents that are designed to target position 304 on the ANGPTL3 gene, six- to eight-week-old female C57bl/6 mice were used. Pre-dose serum samples were taken at day −1 after a four hour fast. At day 1, each mouse was given a single subcutaneous administration of 200 μl containing 0.5 mg/kg (mpk) of an ANGPTL3 RNAi agent in D5W (dextrose in 5% water), or control (D5W) with no RNAi agent, according to the dosing groups recited in Table 31.
(§5) Each of the RNAi agents included a modified sequence and an N-acetyl-galactosamine-containing targeting ligand conjugated to the 5′ terminal end of the sense strand. (See Tables 3, 4, and 5 for modified sequences and targeting ligand structures). The injections were performed between the skin and muscle (i.e. subcutaneous injections) into the loose skin over the neck and shoulder area. Three (3) mice in each group were tested (n=3). Serum was collected on days 8, 15, 22, and 29. Mice were fasted for four hours prior to each collection. ANGPTL3 protein levels in serum were measured by ELISA assay (R&D Systems), according to the manufacturer's recommendations. Triglycerides, total cholesterol, high-density lipoprotein (HDL), and low-density lipoprotein (LDL) in serum were measured on a Cobas® Integra 400 (Roche Diagnostics), according to the manufacturer's recommendations.
(§6) The ANGPTL3 protein levels, triglyceride levels, total cholesterol levels, HDL levels, and LDL levels for each animal were normalized. For normalization, the level of ANGPTL3 protein, triglyceride, HDL, and total cholesterol, respectively, for each animal at a time point, was divided by the pre-treatment level of expression in that animal (in this case at day −1) to determine the ratio of expression “normalized to pre-treatment.” Expression at a specific time point was then normalized to the D5W control group by dividing the “normalized to pre-treatment” ratio for an individual animal by the mean “normalized to pretreatment” ratio of all mice in the D5W control group.

[7] = tested on: ANGPTL3 gene; assay: Example 7: serum HDL in mice; assay type: in vivo; parameters: key: ratio: (level/pre-treatment day -1 level) ÷ mean of D5W control group; conditions: 0.5 mg/kg single SC injection day 1, female C57bl/6 mice, n=3, ratio to D5W control
Experimental: as §4, §5, §6

[8] = tested on: ANGPTL3 protein; assay: Example 7: serum ANGPTL3 protein by ELISA in mice; assay type: in vivo, C57bl/6 mice; parameters: key: ratio: (level/pre-treatment day -1 level) ÷ mean of D5W control group
Experimental: as §4, §5, §6

[9] = tested on: ANGPTL3 gene; assay: Example 7: serum LDL in mice; assay type: in vivo; parameters: key: ratio: (level/pre-treatment day -1 level) ÷ mean of D5W control group; conditions: 0.5 mg/kg single SC injection day 1, female C57bl/6 mice, n=3, ratio to D5W control
Experimental: as §4, §5, §6

[10] = tested on: ANGPTL3 gene; assay: Example 7: serum triglycerides in mice; assay type: in vivo, C57bl/6 mice; parameters: key: ratio: (level/pre-treatment day -1 level) ÷ mean of D5W control group
Experimental: as §4, §5, §6

[11] = Day 8, 0.5 mg/kg single SC injection on day 1, n=3
[12] = Day 15, 0.5 mg/kg single SC injection on day 1, n=3
[13] = Day 22, 0.5 mg/kg single SC injection on day 1, n=3
[14] = Day 29, 0.5 mg/kg single SC injection on day 1, n=3

AD05577: RNAi agent duplex: antisense AM07350-AS, sense AM07002-SS (antisense mU*fG*mU*mUmGmAmAmUmUmAmAfUmGfUmCfCmAfUmGfG*mA; sense {NAG37}*[invAb]*mUmCmCmAmUmGmGmAfCfAfUmUmAmAmUmUmCmAmAmCmA*[invAb])
Avg TG normalized to pre-treatment ([1]; Day 8): 1.159
Avg TG normalized to pre-treatment ([1]; Day 15): 0.977
Avg TG normalized to pre-treatment ([1]; Day 22): 0.855
Avg TG normalized to pre-treatment ([1]; Day 29): 0.886
Avg TG normalized to pre-treatment ([1]; Day 36): 0.748
Avg ANGPTL3 protein normalized to pre-treatment ([2]; Day 8): 0.503
Avg ANGPTL3 protein normalized to pre-treatment ([2]; Day 15): 0.544
Avg ANGPTL3 protein normalized to pre-treatment ([2]; Day 22): 0.754
Avg ANGPTL3 protein normalized to pre-treatment ([2]; Day 29): 0.586
Avg ANGPTL3 protein normalized to pre-treatment ([2]; Day 36): 0.479
reduction in ANGPTL3 protein compared to pre-treatment ([2]; all measured time points, single 3.0 mg/kg subcutaneous, cynomolgus monkeys): reduction
Average LDL Normalized to Pre-Treatment ([3]; Day 8): 0.951
Average LDL Normalized to Pre-Treatment ([3]; Day 15): 1.091
Average LDL Normalized to Pre-Treatment ([3]; Day 22): 0.860
Average LDL Normalized to Pre-Treatment ([3]; Day 29): 0.991
Average LDL Normalized to Pre-Treatment ([3]; Day 36): 0.925
Avg Total Chol normalized to pre-treatment ([4]; Day 8): 0.885
Avg Total Chol normalized to pre-treatment ([4]; Day 15): 0.931
Avg Total Chol normalized to pre-treatment ([4]; Day 22): 0.844
Avg Total Chol normalized to pre-treatment ([4]; Day 29): 0.839
Avg Total Chol normalized to pre-treatment ([4]; Day 36): 0.936
Average HDL Normalized to Pre-Treatment ([5]; Day 8): 0.855
Average HDL Normalized to Pre-Treatment ([5]; Day 15): 0.788
Average HDL Normalized to Pre-Treatment ([5]; Day 22): 0.818
Average HDL Normalized to Pre-Treatment ([5]; Day 29): 0.857
Average HDL Normalized to Pre-Treatment ([5]; Day 36): 0.852

AD05777: RNAi agent duplex: antisense AM07235-AS, sense AM07610-SS (antisense UACUGAUCAAAUAUGUUGAGC; sense GCUCAACNUNUUUGAUCAGUA; (NAG37)s GalNAc ligand; RNAi agent antisense strand modified sequence; RNAi agent sense strand modified sequence; modified_base 8, 10 n = 2′-O-methyl-2-aminoadenosine-3′-phosphate)
Avg Total Chol, normalized to pre-treatment and control [6, 11]: 0.797
Avg Total Chol, normalized to pre-treatment and control [6, 12]: 0.800
Avg Total Chol, normalized to pre-treatment and control [6, 13]: 0.794
Avg Total Chol, normalized to pre-treatment and control [6, 14]: 0.995
Avg HDL, normalized to pre-treatment and control ([7]; Day 8): 0.784
Avg HDL, normalized to pre-treatment and control ([7]; Day 15): 0.768
Avg HDL, normalized to pre-treatment and control ([7]; Day 22): 0.801
Avg HDL, normalized to pre-treatment and control ([7]; Day 29): 1.008
Avg ANGPTL3, normalized to pre-treatment and control [8, 11]: 0.297
Avg ANGPTL3, normalized to pre-treatment and control [8, 12]: 0.246
Avg ANGPTL3, normalized to pre-treatment and control [8, 13]: 0.257
Avg ANGPTL3, normalized to pre-treatment and control [8, 14]: 0.345
Avg LDL, normalized to pre-treatment and control ([9]; Day 8): 0.886
Avg LDL, normalized to pre-treatment and control ([9]; Day 15): 0.869
Avg LDL, normalized to pre-treatment and control ([9]; Day 22): 0.966
Avg LDL, normalized to pre-treatment and control ([9]; Day 29): 1.224
Avg TG, normalized to pre-treatment and control [10, 11]: 0.755
Avg TG, normalized to pre-treatment and control [10, 12]: 0.702
Avg TG, normalized to pre-treatment and control [10, 13]: 0.700
Avg TG, normalized to pre-treatment and control [10, 14]: 0.648
